Reference: patent US6193954A, “Formulations for pulmonary delivery of dopamine agonists” (Abbott Laboratories, priority 1997, dated 2001)
Structures can show the parent of a compound that is named as a salt.

Key:
[1] = Bioavailability of MDI compositions in dogs, inhalation vs intravenous (plasma diol); format: in vivo, beagle dog; details: dog
Text: The aerosol sprays were delivered anteriorly via a tracheal stoma in each subject animal (beagle dog).

[2] = Intratracheal administration of liquid formulation to tracheotomized dogs; format: in vivo; details: 0.1 mg/kg (approximately 0.5 ml), mannitol/water solution
Procedure: The viscosity of the administered solution was similar to water and the dose was squirted into the tube via pressure from a syringe filled with the liquid formulation. This formlation would not be administered through nasal or mouth means.
The solution used in the intratracheal administration contained the following:
Compound of example 1 6.9 mg/ml
with water for Injection as the solvent.
The above percentages may be varied by one of ordinary skill in the art to provide various dosages and/or ratios of the above excipients or compounds.

[3] = Dispersion quality of MDI formulations (visual suspension quality after 24 hours); format: physicochemical; details: HFC-134a
Procedure: A determination of the dispersion quality of several MDI formulations prepared with HFA-134a was conducted as follows: Pluronic® L44 (BASF Corp., Parsippany, N.J.), drug and excipients being formulated were combined in the amounts shown in appropriate transparent aerosol containers (vials). The vials were crimped using a 100 μL Valois metered valve and charged with approximately 10 mL of HFC-134a. The container was shaken for about 30 minutes to blend the ingredients. The dispersion quality in each preparation was evaluated visually after 24 hours using the following criteria:
Poor: Phase separation; top phase clear, bottom phase containing solids
Fair: Partial phase separation; cloudiness in the top phase
Good: Grainy appearance; no phase separation
Excellent: Milky homogeneous appearance; no phase separation

CCCc1cc2c(s1)CN[C@@H]1CCc3cc(OC(C)=O)c(OC(C)=O)cc3[C@@H]21 [Compound of Example 1, (5aR-trans)-4,5,6,7,11b-hexahydro-2-propylbenzo[f]thieno[2,3-c]quinoline-9,10-diol, diacetate (ester) hydrochloride]
lung absorption following inhalation delivery vs I.V. administration ([1]; inhalation): occurs more efficiently than I.V. administration
absorption upon delivery to the lungs ([1]; suspended in HFC-134a): well absorbed upon delivery to the lungs
delivery on intratracheal administration [2]: effectively delivered
Suspension Quality ([3]; 20 mg drug, 0 Pluronic L44, 0 tocopherol acetate): good
Suspension Quality ([3]; 20 mg drug, 3 Pluronic L44, 0 tocopherol acetate): good
Suspension Quality ([3]; 20 mg drug, 3 Pluronic L44, 2 mg tocopherol acetate): good
Suspension Quality ([3]; 20 mg drug, 5 Pluronic L44, 0 tocopherol acetate): good
Suspension Quality ([3]; 20 mg drug, 5 Pluronic L44, 2 mg tocopherol acetate): good
Suspension Quality ([3]; 40 mg drug, 0 Pluronic L44, 0 tocopherol acetate): good
Suspension Quality ([3]; 40 mg drug, 3 Pluronic L44, 0 tocopherol acetate): good
Suspension Quality ([3]; 40 mg drug, 3 Pluronic L44, 2 mg tocopherol acetate): good
Suspension Quality ([3]; 40 mg drug, 5 Pluronic L44, 0 tocopherol acetate): good
Suspension Quality ([3]; 40 mg drug, 5 Pluronic L44, 2 mg tocopherol acetate): good
